From patent US20100113392A1, “METHODS OF USING SAHA AND BORTEZOMIB FOR TREATING MULTIPLE MYELOMA” (priority 2006, published 2010)

Assays:
[1] = test system: relapsed and refractory multiple myeloma; experiment: Phase I clinical trial of oral Vorinostat plus Bortezomib: response; assay type: in vivo, human; settings: dexamethasone 20 mg p.o. days 4-8 added to Vorinostat and Bortezomib for nonresponders
[2] = Pharmacokinetics of Vorinostat in the Phase I trial
[3] = Phase I clinical trial of oral Vorinostat plus Bortezomib: MTD, safety and tolerability; assay type: in vivo, human; settings: Vorinostat 500 mg daily with Bortezomib […]^2, cycle 1, 2 patients
Experimental: This was a multicenter, open label, escalating dose, Phase I study of Vorinostat in combination with intravenous Bortezomib injection in patients eligible for Bortezomib therapy. […] Patients on Dose Levels 1-5 were administered Bortezomib as an intravenous (IV) bolus on Days 1, 4, 8 and 11.
At the beginning of the study, five 3-patient cohorts were evaluated at various dose levels as outlined in the Table 1 and Table 2 below.
In the absence of treatment delays due to adverse events, treatment continued for 8-cycles or until one of the following criteria applied: • a) disease progression • b) intercurrent illness that prevents further administration of treatment • c) unacceptable adverse events • d) patient decides to withdraw from the study • e) general or specific changes in the patient's condition render the patient unacceptable for further treatment in the judgment of the investigator. • f) if the patient achieves a complete remission, they continue on the study for a total of 8 cycles.
Further studies enrolled up to 40 adult patients with multiple myeloma, relapsed or refractory disease. One treatment cycle was 3 weeks or 21 days. […] Although the current FDA approved Bortezomib dose for relapsed myeloma patients to be […], if toxicity occurred, the subsequent dose of Bortezomib was going to be decreased to 0.7 mg/m^2. […] Other Bortezomib dose to be tested was 1.3 mg/m^2.

Row | Compound | effect of added dexamethasone on response [1] | effect of administration after Bortezomib on pharmacokinetics ([2]; Vorinostat given after Bortezomib) | dose dependence of pharmacokinetics ([2]; single oral dose, 100-500 mg) | toxicities defining the MTD in cycle 1 [3]
1 | 9-fluoro-1′-beta,17,21-trihydroxy-16-alpha-methylpregna-1,4-diene-3,20-dione [dexamethasone] | no upgrade in response | – | – | –
2 | O=C(CCCCCCC(=O)Nc1ccccc1)NO [Vorinostat, N-Hydroxy-N′-phenyl octanediamide] | – | did not affect pharmacokinetics | linear | grade 4 prolonged QT interval and grade 4 fatigue
